Assay results taken from patent publication US20110151485A1, “METHOD FOR SCREENING FOR ANTIANGIOGENIC AGENT, AND METHOD FOR SCREENING FOR ANTIANGIOGENIC SIGNAL GENE” (National University Corporation Tokyo Medical and Dental …, priority 2008, published 2011).

Columns and labels:
Assay type in all cases: cell-based
[1] = test system: PKR; assay: western blotting with phospho-specific anti-PKR antibody, aorta endothelial cells (rAEC); settings: rat aorta derived primary endothelial cells, 4 or 8 hours
Method: Similarly, […] aorta endothelial cells (rAEC) were treated respectively with salubrinal (20 μM), rifampicin (40 μg/ml), or endostatin (1.0×10^−9 M); PKR inhibitor A (2-aminopurine, 10 mM) followed by endostatin (1.0×10^−9 M); PKR inhibitor B (8-(imidazole-4-ylmethylene)-6H-azolidino [5,4-g]benzodiazole-7-one, 0.3 μM) followed by rifampicin (40 μg/ml); and PKR inhibitor B (same as above, 0.3 μM) followed by endostatin (1.0×10^−9 M); and maintained at 37° C. for 4 or 8 hours. Total cell extracts from respective samples were subjected to western blotting analysis using phospho-specific anti-PKR antibody to determine the extent of PKR phosphorylation.

[2] = test system: PKR; assay: fluorescent antibody staining with phospho-specific anti-PKR antibody, human umbilical vein endothelial cells
Method: Human umbilical endothelial cells cultured in HamF12K were treated with 40 μg/ml of rifampicin or 1.0×10^−9 M of endostatin, and maintained at 37° C. for 30 minutes. Cells were then stained using phospho-specific anti-PKR antibody as the primary antibody, and the presence of phosphorylated PKR was examined in the cells.
Similar experiments were also performed in human umbilical vein endothelial cells pre-treated with structural analog of PKR inhibitor (PKR negative) and then treated with 40 μg/ml rifampicin, as well as in human umbilical vein endothelial cells pre-treated with PKR inhibitor B (8-(imidazole-4-ylmethylene)-6H-azolidino [5,4-g]benzodiazole-7-one, 0.3 μM) and then treated with 40 μg/ml rifampicin or 1.0×10^−9 M endostatin, respectively.

[3] = test system: ID1 gene; assay: real-time quantitative RT-PCR, ID1 gene, human umbilical vein endothelial cells; settings: 4 to 8 hours
Method: (§2) Human umbilical vein endothelial cells cultured in HamF12K medium were treated with 40 μg/ml rifampicin or 1.0×10^−8 M endostatin, and maintained at 37° C. for 4 to 8 hours. […] After establishing the quantification condition, the amount of mRNA for these genes were quantified. […] Human umbilical vein endothelial cells cultured in HamF12K medium were treated with 20 μM salubrinal, and maintained at 37° C. for 4 to 8 hours. Subsequently, total cell extracts were subjected to real-time quantitative RT-PCR using TaqMan probe for ID1 gene, ID3 gene, integrinαv gene, Flt gene and Ephrin A1 gene, respectively. After establishing the quantification condition, the amount of mRNA for these genes were quantified.

[4] = test system: ID3 gene; assay: real-time quantitative RT-PCR, ID3 gene, human umbilical vein endothelial cells; settings: 4 to 8 hours
Method: as §2

[5] = test system: integrinαv gene; assay: real-time quantitative RT-PCR, integrinαv gene, human umbilical vein endothelial cells; settings: 4 to 8 hours
Method: as §2

[6] = test system: Flt gene; assay: real-time quantitative RT-PCR, Flt gene, human umbilical vein endothelial cells; settings: 4 to 8 hours
Method: as §2

[7] = test system: Ephrin A1 gene; assay: real-time quantitative RT-PCR, Ephrin A1 gene, human umbilical vein endothelial cells; settings: 4 to 8 hours
Method: as §2

[8] = test system: PKR; assay: western blotting with phospho-specific anti-PKR antibody, human retina vessel endothelial cells (hREC); settings: 40 μg/ml rifampicin or 1.0×10^−9 M endostatin, 10 to 240 minutes
Method: (§1) Human retina vessel endothelial cells (hREC) or human umbilical vein endothelial cells (hUVEC) cultured in HamF12K medium supplemented with 10% bovine fetal serum and growth factors were treated with either 40 μg/ml rifampicin or 1.0×10^−9 M endostatin, and maintained at 37° C. for 10 to 240 minutes. Total cell extracts from the maintained cells were then subjected to western blotting using phospho-specific anti-PKR antibody to examine the time course of PKR phosphorylation.

[9] = test system: PKR; assay: western blotting with phospho-specific anti-PKR antibody, human umbilical vein endothelial cells (hUVEC); settings: 40 μg/ml rifampicin or 1.0×10^−9 M endostatin, 10 to 240 minutes
Method: as §1

[10] = test system: PKR mRNA; assay: real-time quantitative RT-PCR, PKR mRNA, human umbilical vein endothelial cells; settings: 40 μg/ml rifampicin or 1.0×10^−8 M endostatin, 4 to 8 hours
Method: Human umbilical vein endothelial cells cultured in HamF12K medium were treated with 40 μg/ml rifampicin or 1.0×10^−8 M endostatin, and maintained at 37° C. for 4 to 8 hours. Subsequently, total cell extracts were subjected to real-time quantitative RT-PCR using TaqMan probe for PKR mRNA, and the amount of PKR mRNA was quantified. Similar processes were repeated for human umbilical vein endothelial cell samples that were transfected with PKR siRNA prior to rifampicin or endostatin treatment.

[11] = hUVEC transfected with PKR siRNA prior to 40 μg/ml rifampicin or 1.0×10^−8 M endostatin
[12] = hUVEC, 40 μg/ml rifampicin or 1.0×10^−8 M endostatin

Compound: O=C1Nc2ccc3ncsc3c2C1=Cc1cnc[nH]1 [PKR inhibitor B, reference compound]
- effect of PKR inhibitor pre-treatment on rifampicin or endostatin induced PKR phosphorylation ([1]; inhibitor 0.3 μM): did not induce PKR phosphorylation
- effect of PKR inhibitor pre-treatment on PKR phosphorylation after rifampicin or endostatin treatment (fluorescent antibody) ([2]; inhibitor 0.3 μM): did not occur

Compound: O=C(/C=C/c1ccccc1)NC(NC(=S)Nc1cccc2cccnc12)C(Cl)(Cl)Cl (stereo not drawn) [salubrinal, reference compound]
- expression level of mRNA for ID1 gene ([3]; hUVEC, 20 μM salubrinal): decrease
- expression level of mRNA for ID3 gene ([4]; hUVEC, 20 μM salubrinal): decrease
- expression level of mRNA for integrinαv gene ([5]; hUVEC, 20 μM salubrinal): decrease
- expression level of mRNA for Flt gene ([6]; hUVEC, 20 μM salubrinal): decrease
- expression level of mRNA for Ephrin A1 gene ([7]; hUVEC, 20 μM salubrinal): decrease

Compound: endostatin
- phosphorylation of PKR [8]: enhanced
- phosphorylation of PKR [9]: enhanced
- phosphorylation of PKR in cells pre-treated with specific PKR inhibitor ([1]; PKR inhibitor B 0.3 μM followed by rifampicin 40 μg/ml or endostatin 1.0×10^−9 M): did not induce PKR phosphorylation
- phosphorylation of PKR ([1]; rifampicin 40 μg/ml or endostatin 1.0×10^−9 M): induced phosphorylation of PKR
- PKR phosphorylation in the cell (fluorescent antibody) ([2]; 40 μg/ml rifampicin or 1.0×10^−9 M endostatin, 30 minutes): induced enhancement of PKR phosphorylation
- PKR phosphorylation in cells pre-treated with specific PKR inhibitor (fluorescent antibody) ([2]; PKR inhibitor B 0.3 μM, then 40 μg/ml rifampicin or 1.0×10^−9 M endostatin): did not occur
- PKR expression (PKR mRNA) [10]: increased
- decrease of expression of ID1 gene in PKR siRNA treated samples [3, 11]: did not occur
- expression level of ID1 gene [3, 12]: decreased
- decrease of expression of ID3 gene in PKR siRNA treated samples [4, 11]: did not occur
- expression level of ID3 gene [4, 12]: decreased
- decrease of expression of integrinαv gene in PKR siRNA treated samples [5, 11]: did not occur
- expression level of integrinαv gene [5, 12]: decreased
- decrease of expression of Flt gene in PKR siRNA treated samples [6, 11]: did not occur
- expression level of Flt gene [6, 12]: decreased
- decrease of expression of Ephrin A1 gene in PKR siRNA treated samples [7, 11]: did not occur
- expression level of Ephrin A1 gene [7, 12]: decreased
